What was measured:
Pythium ultimum = Pythium ultimum / liquid culture (seedling damping off); type: cell-based; conditions: Globisporangium ultimum; 200 ppm; potato dextrose broth, 24° C., 2-3 days after application; read-out: disease control (inhibition of growth determined photometrically)
Plasmopara viticola = experiment: whole plant or invertebrate; type: in vivo; conditions: foliar, read-out: disease control
[1] = test system: Monographella nivalis (Microdochium nivale); experiment: Monographella nivalis (Microdochium nivale) / liquid culture (foot rot cereals); type: cell-based; conditions: PDB potato dextrose broth, 24° C., 4-5 days after application, read-out: disease control (inhibition of growth determined photometrically)
Gaeumannomyces graminis = Gaeumannomyces graminis / liquid culture (take-all of cereals); type: cell-based; conditions: PDB potato dextrose broth, 24° C., 4-5 days after application, read-out: disease control (inhibition of growth determined photometrically)
Description: (§1) 14. Gaeumannomyces graminis/Liquid Culture (Take-all of Cereals): Mycelial fragments of the fungus from cryogenic storage were directly mixed into nutrient broth (PDB potato dextrose broth). After placing a DMSO solution of test compound into a 96-well microtiter plate at an application rate of 200 ppm, the nutrient broth Cp.33, containing the fungal spores is added. The test plates were incubated at 24° C. and the inhibition of growth was determined photometrically 4-5 days after application.

[2] = test system: Thanatephorus cucumeris (Rhizoctonia solani); experiment: Thanatephorus cucumeris (Rhizoctonia solani) / liquid culture (foot rot, damping-off); type: cell-based; conditions: PDB potato dextrose broth, 24° C., 3-4 days after application, read-out: disease control (inhibition of growth determined photometrically)
Description: 17. Thanatephorus cucumeris (Rhizoctonia solani)/Liquid Culture (Foot Rot, Damping-Off): Mycelia fragments of a newly grown liquid culture of the fungus were directly mixed into nutrient broth (PDB potato dextrose broth). After placing a DMSO solution of the test compounds into a 96-well microtiter plate at an application rate of 200 ppm, the nutrient broth containing the fungal material was added. The test plates were incubated at 24° C. and the inhibition of growth was determined photometrically 3-4 days after application.

[3] = test system: Mycosphaerella graminicola (Septoria tritici); experiment: Mycosphaerella graminicola (Septoria tritici) / liquid culture (Septoria blotch); type: cell-based; conditions: Zymoseptoria tritici, PDB potato dextrose broth, 24° C., 4-5 days after application, read-out: disease control (inhibition of growth determined photometrically)
Description: as §1, with “13. Mycosphaerella graminicola (Septoria tritici)/Liquid” for “14. Gaeumannomyces graminis/Liquid”, “(Septoria Blotch): Conidia” for “(Take-all of Cereals): Mycelial fragments”, “broth” for “broth Cp.33,”, “was” for “is”

Compound | inhibition at 200 ppm (Pythium ultimum) | pest or weed control at 200 ppm (Plasmopara viticola) | inhibition at 200 ppm [1] | inhibition at 200 ppm (Gaeumannomyces graminis) | inhibition at 200 ppm [2] | inhibition at 200 ppm [3]
O=C(NCc1ccccc1F)c1cc2c(cc1Cl)COB2O [Compound 73] | ≥ 80% | ≥ 80% | – | – | – | –
O=C(NCc1ccccc1OC(F)(F)F)c1cc2c(cc1Cl)COB2O [Compound 95] | – | ≥ 80% | ≥ 80% | – | – | –
O=C(NCCc1c[nH]c2ccccc12)c1cc2c(cc1Cl)COB2O [Compound 97] | ≥ 80% | – | – | ≥ 80% | – | –
O=C(NCc1ccccc1C(F)(F)F)c1cc2c(cc1Cl)COB2O [Compound 99] | ≥ 80% | – | ≥ 80% | – | – | –
O=C(NCc1ccc(Oc2ccccc2)cc1)c1cc2c(cc1Cl)COB2O [Compound 103] | ≥ 80% | ≥ 80% | ≥ 80% | ≥ 80% | – | –
CC(NC(=O)c1cc2c(cc1F)COB2O)c1ccccc1 (stereo not drawn) [Compound 109] | ≥ 80% | ≥ 80% | – | – | – | –
O=C(Nc1ccc(-n2cccc2)cc1)c1cc2c(cc1Cl)COB2O [Compound 125] | ≥ 80% | – | – | ≥ 80% | – | –
Cc1cc(=O)oc2cc(NC(=O)c3cc4c(cc3Cl)COB4O)ccc12 [Compound 139] | ≥ 80% | – | – | ≥ 80% | – | –
O=C(Nc1ccc(S(=O)(=O)Nc2ccccn2)cc1)c1cc2c(cc1Cl)COB2O [Compound 143] | ≥ 80% | ≥ 80% | – | – | – | –
Cc1ccccc1NC(=O)c1cc2c(cc1F)COB2O [Compound 148] | ≥ 80% | – | – | – | ≥ 80% | –
O=C(Nc1ccc2ccccc2n1)c1cc2c(cc1Cl)COB2O [Compound 154] | ≥ 80% | – | – | – | – | ≥ 80%
COc1ccc(NC(=O)c2cc3c(cc2F)COB3O)c(OC)c1 [Compound 155] | ≥ 80% | ≥ 80% | – | – | – | –
O=C(Nc1cccc(F)c1)c1cc2c(cc1F)COB2O [Compound 157] | ≥ 80% | – | – | ≥ 80% | – | –
O=C(Nc1ccccc1N1CCOCC1)c1cc2c(cc1F)COB2O [Compound 170] | ≥ 80% | ≥ 80% | – | – | – | –
O=C(Nc1ccc(S(=O)(=O)Nc2ccccn2)cc1)c1cc2c(cc1F)COB2O [Compound 174] | ≥ 80% | ≥ 80% | – | – | – | –
O=C(Nc1ccc2ccccc2n1)c1cc2c(cc1F)COB2O [Compound 179] | ≥ 80% | ≥ 80% | ≥ 80% | ≥ 80% | – | ≥ 80%
Cc1nnc(NC(=O)c2cc3c(cc2F)COB3O)s1 [Compound 184] | ≥ 80% | ≥ 80% | – | – | – | –
O=C(Nc1ccc(Oc2ccccc2)nc1)c1cc2c(cc1F)COB2O [Compound 185] | ≥ 80% | ≥ 80% | – | – | – | –
O=C(OCCc1ccc(Cl)cc1Cl)c1cc2c(cc1Cl)COB2O [Compound 190] | – | – | ≥ 80% | ≥ 80% | – | –
O=C(OCc1ccc(C(F)(F)F)cc1Cl)c1cc2c(cc1Cl)COB2O [Compound 200] | – | – | ≥ 80% | ≥ 80% | – | –
O=C(OCc1ccco1)c1cc2c(cc1Cl)COB2O [Compound 210] | ≥ 80% | – | – | ≥ 80% | ≥ 80% | –
N#CCOC(=O)c1cc2c(cc1Cl)COB2O [Compound 213] | ≥ 80% | ≥ 80% | – | – | – | –
C=CCC(OC(=O)c1cc2c(cc1Cl)COB2O)C(=O)OC (stereo not drawn) [Compound 222] | ≥ 80% | – | ≥ 80% | – | ≥ 80% | –
O=C(NCc1ccccc1F)c1ccc2c(c1)B(O)OC2 [Compound 262] | ≥ 80% | ≥ 80% | – | – | – | –
O=C(NCc1cccc(Cl)c1)c1ccc2c(c1)B(O)OC2 [Compound 268] | ≥ 80% | ≥ 80% | – | – | – | –
O=C(NCc1ccccc1OC(F)(F)F)c1ccc2c(c1)B(O)OC2 [Compound 273] | ≥ 80% | ≥ 80% | – | – | – | –

Compound | inhibition at 200 ppm (Pythium ultimum) | pest or weed control at 200 ppm (Plasmopara viticola) | inhibition at 200 ppm [1] | inhibition at 200 ppm (Gaeumannomyces graminis) | inhibition at 200 ppm [2] | inhibition at 200 ppm [3]
CC(C)c1ccc(NC(=O)c2ccc3c(c2)B(O)OC3)cc1 [Compound 279] | ≥ 80% | ≥ 80% | ≥ 80% | – | – | –
COc1ccc(NC(=O)c2ccc3c(c2)B(O)OC3)c(OC)c1 [Compound 283] | ≥ 80% | ≥ 80% | – | – | – | –
O=C(Nc1cccc(F)c1)c1ccc2c(c1)B(O)OC2 [Compound 285] | ≥ 80% | ≥ 80% | – | – | – | –
COc1ccc(-c2ccccc2)cc1NC(=O)c1ccc2c(c1)B(O)OC2 [Compound 289] | ≥ 80% | ≥ 80% | – | – | – | –
O=C(Nc1cc(C(F)(F)F)ccc1N1CCOCC1)c1ccc2c(c1)B(O)OC2 [Compound 291] | – | – | – | ≥ 80% | – | –
O=C(Nc1ccccc1-c1cc2ccccc2[nH]1)c1ccc2c(c1)B(O)OC2 [Compound 292] | ≥ 80% | ≥ 80% | – | ≥ 80% | – | –
O=C(Nc1ccc(Oc2ccccc2)nc1)c1ccc2c(c1)B(O)OC2 [Compound 306] | ≥ 80% | ≥ 80% | – | – | – | –
COC(=O)c1sccc1NC(=O)c1ccc2c(c1)B(O)OC2 [Compound 308] | – | ≥ 80% | ≥ 80% | – | – | –
CC(C#N)OC(=O)c1ccc2c(c1)B(O)OC2 (stereo not drawn) [Compound 315] | ≥ 80% | – | – | – | ≥ 80% | –
C[Si](C)(C)CCCOC(=O)c1ccc2c(c1)B(O)OC2 [Compound 316] | ≥ 80% | – | ≥ 80% | ≥ 80% | ≥ 80% | –
O=C(OCC(Cl)(Cl)Cl)c1ccc2c(c1)B(O)OC2 [Compound 321] | ≥ 80% | – | ≥ 80% | ≥ 80% | ≥ 80% | ≥ 80%
CC(F)COC(=O)c1ccc2c(c1)B(O)OC2 (stereo not drawn) [Compound 335] | ≥ 80% | ≥ 80% | – | – | ≥ 80% | –
N#CCOC(=O)c1ccc2c(c1)B(O)OC2 [Compound 338] | ≥ 80% | ≥ 80% | – | – | ≥ 80% | –
N#CCCOC(=O)c1ccc2c(c1)B(O)OC2 [Compound 357] | ≥ 80% | ≥ 80% | – | – | – | –
O=C(OC1CCOC1)c1ccc2c(c1)B(O)OC2 (stereo not drawn) [Compound 364] | ≥ 80% | ≥ 80% | – | – | ≥ 80% | –
O=C(OC(CF)CF)c1cc2c(cc1F)COB2O [Compound 368] | ≥ 80% | ≥ 80% | ≥ 80% | – | ≥ 80% | –
C=CC(=O)OCC(C)OC(=O)c1cc2c(cc1F)COB2O (stereo not drawn) [Compound 372] | ≥ 80% | – | ≥ 80% | – | – | –
O=C(OCC(F)(F)Cl)c1cc2c(cc1F)COB2O [Compound 374] | ≥ 80% | ≥ 80% | ≥ 80% | ≥ 80% | ≥ 80% | ≥ 80%
CC(C#N)OC(=O)c1cc2c(cc1F)COB2O (stereo not drawn) [Compound 376] | ≥ 80% | ≥ 80% | – | – | – | –
O=C(COC(=O)c1cc2c(cc1F)COB2O)c1ccccc1 [Compound 397] | ≥ 80% | ≥ 80% | ≥ 80% | – | ≥ 80% | ≥ 80%
C#CC(OC(=O)c1cc2c(cc1F)COB2O)c1ccccc1 (stereo not drawn) [Compound 399] | ≥ 80% | ≥ 80% | ≥ 80% | ≥ 80% | ≥ 80% | ≥ 80%
O=C(OCC1CCCO1)c1cc2c(cc1F)COB2O (stereo not drawn) [Compound 400] | ≥ 80% | ≥ 80% | – | – | ≥ 80% | –
O=C(OC1CCCCC1)c1cc2c(cc1F)COB2O [Compound 417] | ≥ 80% | ≥ 80% | ≥ 80% | ≥ 80% | ≥ 80% | ≥ 80%
N#CCCOC(=O)c1cc2c(cc1F)COB2O [Compound 420] | ≥ 80% | ≥ 80% | – | – | – | –
O=C(OC1COC1)c1cc2c(cc1F)COB2O [Compound 425] | ≥ 80% | ≥ 80% | – | ≥ 80% | – | –
O=C(OCCC(F)(F)F)c1cc2c(cc1F)COB2O [Compound 431] | ≥ 80% | – | ≥ 80% | ≥ 80% | ≥ 80% | –
